Tests used:
[1] = type: in vivo, cats
Experimental: In vivo use of preparations of the invention as antiacidotic agents. […] The recovery of the pH to the normal value follows roughly an exponential course with a time constant of 1-3 minutes. […] Results are given in the appended Figure II.

[2] = Plasma concentration of various components after i.v. administration of NMG; type: in vivo; details: cat
[3] = Titration of rat gastric juice with antacid solutions; type: physicochemical; details: aqueous solutions: sodium bicarbonate 150 mM, NMG 150 mM, NMGP 20 mg/cc
Source text: Results are given in the appended Figure III.

effect on respiration ([1]; in vivo): no significant effect
effects in the vein through which the solution was administered ([1]; in vivo, iv): No gross deleterious effects
Plasma concentration Potassium ([2]; 1 min. after i.v. NMG 0.3 mmol/kg (before: 4.2)): 4200 µM
Plasma concentration Urea ([2]; 1 min. after i.v. NMG 0.3 mmol/kg (before: 7)): 6900 µM
Plasma concentration Chloride ([2]; 1 min. after i.v. NMG 0.3 mmol/kg (before: 113)): 112000 µM
Plasma concentration Sodium ([2]; 1 min. after i.v. NMG 0.3 mmol/kg (before: 142)): 145000 µM
Plasma concentration Potassium ([2]; 30 min. after i.v. NMG 0.3 mmol/kg (before: 4.2)): 4200 µM
Plasma concentration Urea ([2]; 30 min. after i.v. NMG 0.3 mmol/kg (before: 7)): 6800 µM
Plasma concentration Chloride ([2]; 30 min. after i.v. NMG 0.3 mmol/kg (before: 113)): 113000 µM
Plasma concentration Sodium ([2]; 30 min. after i.v. NMG 0.3 mmol/kg (before: 142)): 144000 µM
Plasma concentration Potassium ([2]; 120 min. after i.v. NMG 0.3 mmol/kg (before: 4.2)): 4200 µM
Plasma concentration Urea ([2]; 120 min. after i.v. NMG 0.3 mmol/kg (before: 7)): 6600 µM
Plasma concentration Chloride ([2]; 120 min. after i.v. NMG 0.3 mmol/kg (before: 113)): 116000 µM
Plasma concentration Sodium ([2]; 120 min. after i.v. NMG 0.3 mmol/kg (before: 142)): 147000 µM
SMILES: CNC[C@H](O)[C@@H](O)[C@H](O)[C@H](O)CO [NMG, 1-deoxy-1-(methylamino)-D-glucitol]
urine pH ([1]; artificially ventilated cats, 1cc/Kg of 300 mM): Parallel increase
partial pressure of CO₂ (P CO2) ([1]; artificially ventilated cats, 1cc/Kg of 300 mM isotonic solution): clear decrease
time constant of recovery of the pH to the normal value ([1]; artificially ventilated cats, 1cc/Kg of 300 mM, roughly exponential course): 1-3 minutes
blood pH ([1]; artificially ventilated cats, rapid (about 15 sec.) administration of 1cc/Kg of 300 mM isotonic solution, immediate elevation from about 7.4): ~7.9
antacid potency in titration of gastric juice [3]: more potent than sodium bicarbonate
